For series [1], the target named is T1, recombinant human secretory phospholipase A2 (Homo sapiens, UniProt P14555).
T1 sequence (P14555 21-144): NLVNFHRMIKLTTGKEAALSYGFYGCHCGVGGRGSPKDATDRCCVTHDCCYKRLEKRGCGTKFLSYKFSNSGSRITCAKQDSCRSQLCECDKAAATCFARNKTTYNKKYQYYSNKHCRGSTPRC
Description: Inhibition test of human secretory phospholipase A2 (chromogenic assay, 96 well microtiterplate). The series is classed as biochemical. The settings on record: sPLA2 50 ng/well, 40° C., 30 minutes, OD 405 nm, substrate 1,2-bis(heptanoylthio)-1,2-dideoxy-sn-glycero-3-phospholylcholine. The text has this: Inhibition Test of Human Secretory Phospholipase A2
In order to identify and evaluate an inhibitor of recombinant human secretory phospholipase A2, the following chromogenic assay is utilized. The assay herein has been applied for high volume screening wherein 96 well microtiterplate is used. A general explanation for such assay is described in “Analysis of Human Synovial Fluid Phospholipase A2 on Short Chain Phosphatidylcholine-Mixed Micelles: Development of a Spectrophotometric Assay Suitable for a Micortiterplate Reader” (Analytical Biochemistry, 204, pp 190-197, 1992 by Laure. J. Reynolds. Lori L. Hughes and Edward A. Dennis: the disclosure of which is incorporated herein for reference.
Bovine Serum Albumin (fatty acid free) (1 g/L) (Sigma A-7030)
pH 7.5 (adjusted with NaOH)
pH 4.5 (adjusted with acetic acid)
1 mg of sPLA2 is dissolved in 1 ml of an enzyme buffer. Thereafter, the solution is maintained at 4° C.
In the assay, 5 μl of the solution is diluted with 1995 μl of the reaction buffer to be used.
198 mg of 5,5′-dithiobis-2-[…] (manufactured by Wako Pure Chemicals) is dissolved in 100 ml of H2O
100 mg of racemic 1,2-bis(heptanoylthio)-1,2-dideoxy-sn-glycero-3-phospholylcholine is dissolved in 1 ml of chloroform.
624.9 mg of Triton-X 100 is dissolved in the reaction buffer.
Enzyme Reaction: for 1 plate of Microtiterplate
1) 0.106 ml of the substrate solution is put in a centrifugal tube, and nitrogen gas is jetted to remove the solvent. 0.54 ml of Triton-X 100 is added thereto, the mixture is stirred, thereafter it is sonified in a bath type sonification to dissolve. To the resulting product are added 17.8 m1l of the reaction buffer and 0.46 ml of DTNB, and 0.18 ml each of the admixture is poured to wells of the 96 well microtiterplate.
2) 10 μl of a test compound (or solvent blank) are added in accordance with alignment of plates which has been previously set.
3) Incubation is effected at 40° C. for 15 minutes.
4) 20 μl of an enzyme solution (sPLA2) which has been previously diluted (50 ng/well) are added to start reaction (40° C., 30 minutes).
5) Changes in absorbancy for 30 minutes are measured by a plate reader, and inhibition activity was calculated (OD: 405 nm).
6) IC50 was determined by plotting log concentration with respect to inhibition values within 10% to 90% inhibiting range.

The structures appear in SMILES notation.

`CCc1c(C(=O)C(N)=O)c2c(OCC(=O)OC)cc(COc3ccc(C)cc3)nn2c1Cc1ccccc1` [Compound I-48] returned a melting point of 191 to 192 °C. Further, the concentration for half-maximal inhibition (IC50) in series [1] was 211 nM. With `COC(=O)COc1cc(C)nn2c(Cc3ccccc3)c(C)c(C(=O)C(N)=O)c12` [Compound I-26], the melting point lay within 163 to 165 °C. The half-maximal inhibitory concentration (IC50) in series [1] worked out at 177 nM. On to `CCc1c(C(=O)C(N)=O)c2c(OCC(=O)OCc3ccccc3)cc(CN3CCN(C)CC3)nn2c1Cc1ccccc1` [Compound I-31], for which the melting point lay within 202 to 203 °C. In addition, the IC50 in series [1] was determined as 15600 nM. As for `CCc1c(C(=O)C(N)=O)c2c(OCC(=O)OC)cc(C)nn2c1Cc1ccccc1-c1ccccc1` [Compound I-35], the melting point was in the range of 187 to 189 °C. In addition, the IC50 in series [1] was 111 nM. In the case of `CCc1c(C(=O)C(N)=O)c2c(OCC(=O)O)cc(C)nn2c1Cc1cccc(Oc2ccccc2)c1` [Compound I-66], the melting point was in the range of 188 to 190 °C. Besides, in series [1], the IC50 was found to be 6 nM. As for `CCc1c(C(=O)C(N)=O)c2c(OCC(=O)O)cc(-c3ccc(F)cc3)nn2c1Cc1ccccc1` [Compound I-62], the melting point was 245 to 248 °C (dec.). The IC50 in series [1] was found to be 12 nM. In the same order, the values of `CCc1c(C(=O)C(N)=O)c2c(OCC(=O)OC)cc(-c3ccc(F)cc3)nn2c1Cc1ccc(F)cc1` [Compound I-32] are 274 to 276 °C (dec.) and 239 nM. The molecule `CCc1c(C(=O)C(N)=O)c2c(OCC(=O)OC)cc(C)nn2c1Cc1cccc(Oc2ccccc2)c1` [Compound I-36] showed a melting point of 201 to 202 °C. Further, the half-inhibitory concentration (IC50) in series [1] was 102 nM. For the molecule `CCc1c(C(=O)C(N)=O)c2c(OCC(=O)O)cc(COc3ccccc3)nn2c1Cc1ccccc1` [Compound I-57], the melting point is 218 to 220 °C (dec.). Further, the IC50 in series [1] came to 7 nM.

For the molecule `CCc1c(C(=O)C(N)=O)c2c(OCC(=O)O)cc(CN3C(=O)CCC3=O)nn2c1Cc1ccccc1` [Compound I-79], the melting point is 210 to 212 °C (dec.). Further, in series [1], the concentration for half-maximal inhibition (IC50) came to 464 nM. On to `Cc1c(C(=O)C(N)=O)c2c(OCC(=O)O)cc(Cc3ccccc3)nn2c1C` [Compound I-81], for which the melting point is 232 to 233 °C (dec.). Moreover, the IC50 in series [1] worked out at 8190 nM. For `CCc1c(C(=O)C(N)=O)c2c(OCC(=O)O)cc(CSc3ccccc3)nn2c1Cc1ccccc1` [Compound I-58], the melting point was 226 to 228 °C (dec.). Besides, the IC50 in series [1] worked out at 9 nM. Molecule `CCc1c(C(=O)C(N)=O)c2c(OCC(=O)OC)cc(-c3ccccc3)nn2c1Cc1ccccc1F` [Compound I-15] yielded a melting point of 244 to 246 °C. Moreover, in series [1], the concentration for half-maximal inhibition (IC50) was determined as 97 nM. Consider `CCc1c(C(=O)C(N)=O)c2c(OCC(=O)O)cc(C(C)C)nn2c1Cc1ccccc1` [Compound I-20], for which the melting point is 234 to 236 °C (dec.). Besides, in series [1], the half-maximal inhibitory concentration (IC50) is 19 nM. Consider `CCc1c(C(=O)C(N)=O)c2c(OCC(=O)O)cc(C)nn2c1Cc1ccccc1` [Compound I-5, (5-aminooxalyl-7-benzyl-6-ethyl-2-methylpyrrolo[1,2-b]pyridazine-4-yloxy)acetic acid], for which, in series [1], the half-maximal inhibitory concentration (IC50) was found to be 11 nM. `CSCc1cc(OCC(=O)O)c2c(C(=O)C(N)=O)c(C)c(Cc3ccccc3)n2n1` [Compound I-73]: the melting point was 228 to 229 °C (dec.). Also, the IC50 in series [1] worked out at 19 nM. `CCc1c(C(=O)C(N)=O)c2c(OCC(=O)O)cc(-c3ccccc3)nn2c1Cc1ccc(F)cc1` [Compound I-23] had a melting point of 250 to 252 °C. The IC50 in series [1] is 7 nM. With `CCCc1cc(OCC(=O)OC)c2c(C(=O)C(N)=O)c(CC)c(Cc3ccccc3)n2n1` [Compound I-9], the melting point fell in the range of 204 to 206 °C. For the same molecule, the IC50 in series [1] is 165 nM. In turn, `CCc1c(C(=O)C(N)=O)c2c(OCC(=O)OCc3ccccc3)cc(CN3CCCC3)nn2c1Cc1ccccc1` [Compound I-29] registered a melting point of 185 to 186 °C. For the same molecule, the IC50 in series [1] was 1520 nM. The matching figures for `COCc1cc(OCC(=O)O)c2c(C(=O)C(N)=O)c(C)c(Cc3ccccc3)n2n1` [Compound I-74]: 197 to 198 °C and 15 nM. `CCc1c(C(=O)C(N)=O)c2c(OCC(=O)O)cc(COc3ccc(OC)cc3)nn2c1Cc1ccccc1` [Compound I-76] came in with a melting point of 218 to 219 °C. The 50% inhibitory concentration (IC50) in series [1] is 6 nM. Consider `CCc1c(C(=O)C(N)=O)c2c(OCC(=O)O)cc(-c3ccc(OC)cc3)nn2c1Cc1ccccc1` [Compound I-64], for which the melting point is 248 to 250 °C (dec.). Also, in series [1], the IC50 was determined as 7 nM.

In turn, `COC(=O)COc1cc(Cc2ccccc2)nn2c(C)c(C)c(C(=O)C(N)=O)c12` [Compound I-51] showed a melting point of 199 to 201 °C. Besides, the IC50 in series [1] was determined as 25600 nM. As for `Cc1cc(OCC(=O)O)c2c(C(=O)C(N)=O)c(C)c(Cc3ccccc3)n2n1` [Compound I-16], the melting point is 271 to 272 °C (dec.). Besides, in series [1], the IC50 worked out at 12 nM. Consider `CCc1cc(OCC(=O)O)c2c(C(=O)C(N)=O)c(CC)c(Cc3ccccc3)n2n1` [Compound I-18], for which the melting point was 223 to 225 °C (dec.). Besides, the IC50 in series [1] came to 10 nM. For the molecule `CCc1c(C(=O)C(N)=O)c2c(OCC(=O)O)cc(C3CCCCC3)nn2c1Cc1ccccc1` [Compound I-67], the melting point is 272 to 275 °C (dec.). Moreover, the half-maximal inhibitory concentration (IC50) in series [1] was 16 nM. For the molecule `CCCc1cc(OCC(=O)O)c2c(C(=O)C(N)=O)c(CC)c(Cc3ccccc3)n2n1` [Compound I-19], the melting point was 231 to 233 °C (dec.). In addition, in series [1], the 50% inhibitory concentration (IC50) stood at 10 nM. `COC(=O)COc1cc(C)nn2c(Cc3ccccc3-c3ccc(F)cc3)c(C)c(C(=O)C(N)=O)c12` [Compound I-52] displayed a melting point of 194 to 196 °C. In addition, the IC50 in series [1] was determined as 93 nM.

Consider `CCCc1cc(OCC(=O)O)c2c(C(=O)C(N)=O)c(C)c(Cc3ccccc3)n2n1` [Compound I-71], for which the melting point was 204 to 205 °C. In series [1], the half-maximal inhibitory concentration (IC50) worked out at 8 nM. As to `CCc1c(C(=O)C(N)=O)c2c(OCC(=O)O)cc(CN3CCN(C)CC3)nn2c1Cc1ccccc1` [Compound I-61], the melting point is 249 to 250 °C (dec.). Moreover, the IC50 in series [1] came to 2610 nM. For the molecule `CCc1c(C(=O)C(N)=O)c2c(OCC(=O)OC)cc(-c3ccccc3)nn2c1Cc1ccccc1` [Compound I-11], the melting point lay in the range of 236 to 239 °C. For the same molecule, the concentration for half-maximal inhibition (IC50) in series [1] came to 67 nM. With `CCc1c(C(=O)C(N)=O)c2c(OCC(=O)O)cc(COc3ccc(F)cc3)nn2c1Cc1ccccc1` [Compound I-75], the melting point was in the range of 215 to 216 °C. Besides, the IC50 in series [1] stood at 9 nM. For `CCc1c(C(=O)C(N)=O)c2c(OCC(=O)OC)cc(COc3ccccc3)nn2c1Cc1ccccc1` [Compound I-6, Methyl (5-aminooxalyl-7-benzyl-6-ethyl-2-phenoxymethylpyrrolo[1,2-b]pyridazine-4-yloxy)acetate], the melting point lay within 185 to 186 °C. The IC50 in series [1] is 238 nM. `CCc1c(C(=O)C(N)=O)c2c(OCC(=O)O)cc(-c3ccc4c(c3)OCO4)nn2c1Cc1ccccc1` [Compound I-69]: the melting point is 240 to 243 °C (dec.). For the same molecule, the IC50 in series [1] was determined as 8 nM. The matching figures for `CCCc1cc(OCC(=O)OC)c2c(C(=O)C(N)=O)c(C)c(Cc3ccccc3)n2n1` [Compound I-41]: 210 to 211 °C and 64 nM.

`CCc1c(C(=O)C(N)=O)c2c(OCC(=O)OC)cc(C)nn2c1Cc1ccccc1` [Compound I-4, Methyl (5-aminooxalyl-7-benzyl-6-ethyl-2-methylpyrrolo[1,2-b]pyridazine-4-yloxy)acetate] displayed a melting point of 225 to 226 °C. The IC50 in series [1] amounted to 150 nM.

Take `CCc1c(C(=O)C(N)=O)c2c(OCC(=O)O)ccnn2c1Cc1ccccc1` [Compound I-3, Sodium (5-aminooxalyl-7-benzyl-6-ethylpyrrolo[1,2-b]pyridazine-4-yloxy)acetate]: the IC50 in series [1] came out at 13 nM. Consider `CCc1c(C(=O)C(N)=O)c2c(OCC(=O)O)ccnn2c1Cc1ccccc1` [Compound I-2, (5-aminooxalyl-7-benzyl-6-ethylpyrrolo[1,2-b]pyridazine-4-yloxy)acetic acid], for which, in series [1], the concentration for half-maximal inhibition (IC50) was 9 nM.

Source of the values: patent US6472389B1, “Pyrrolo[1,2-b] pyridazine derivatives having sPLA2 inhibitory effect” (Shionogi & Co., Ltd., priority 1998, dated 2002).
